These results are taken from PubChem BioAssay AID2305 (GlaxoSmithKline (GSK), 2010).

The test system of the assay is P. falciparum 3D7 growth, pLDH absorbance. Kind of assay: P. falciparum 3D7 growth inhibition, dose response, strain 3D7 (AID 2305).

`COc1ccc(NC(=O)c2ccc(Br)c(C)c2)cc1N1CCN(CCCc2c[nH]c3ccccc23)CC1`: the IC50 (in general, the concentration that gives 50% inhibition) was 380 nM.
Then `CC[C@H]1CN2CC[C@H]1C[C@H]2[C@H](O)c1cc(-c2ccccc2C)nc2ccc(OC)cc12`, with 200 nM; and `Cc1noc(-c2ccccc2)c1NC(=O)NC1CCN(CCCCCNC(=O)/C=C/c2ccc(Cl)c(Cl)c2)CC1`, with 990 nM.
With `CC(=O)Nc1ccc(OCCCCCOc2ccc(NC(C)=O)cc2Cl)c(Cl)c1`, the IC50 was determined as 830 nM.
Then `CCCN(CCC)C(=O)c1cc(C(=O)N[C@@H](Cc2ccccc2)[C@H](O)CNC2CC2)cc(N2CCCCS2(=O)=O)c1`, with 160 nM; and `CCc1ccnc2c(N3CCCC3=O)cc(C(=O)N[C@@H](Cc3ccccc3)[C@H](O)CNC3CCOCC3)cc12`, with 380 nM.
The compound `O=C(NC1CCC(CN2CCC(c3c[nH]c4ccccc34)CC2)CC1)c1cc2ccccc2o1` (stereo not drawn) came in with an IC50 of 970 nM.
In turn, `COc1c(Br)cc(Br)cc1-c1ccc(CN2CC3CCC2CC3)[nH]1` gave an IC50 of 690 nM.
Then `COc1cc2c(cc1OC)CN(CCc1ccc(NC(=O)c3cc4cc(Cl)ccc4[nH]3)cc1)CC2`, with 1020 nM.
The compound `Cc1nc(-c2ccc(-c3ccc(C(=O)Nc4ccc(Cl)c(N5CCN(C)CC5)c4)cc3)c(C)c2)no1` showed an IC50 of 740 nM.
As to `C(=NNc1cc(-c2ccccc2)nc2ccccc12)c1cccnc1`, the concentration for half-maximal inhibition (IC50) turned out to be 1230 nM.
Consider `CC(C)c1ccc(NC(=O)N2CCc3ccc(OCCN(C(C)C)C(C)C)cc32)c(Br)c1`, for which the IC50 is 1090 nM.
As for `Cc1ccc2nc(C)cc(NN=Cc3ccccc3[N+](=O)[O-])c2c1`, the IC50 was 170 nM.
In the case of `CCc1cc(OC)c(C(=O)NC2CCN(C[C@H](O)c3ccnc4ccc(OC)cc34)CC2)cc1Br`, the IC50 came out at 810 nM.
To `O=C(NCCCCN1CCC[C@@H]2c3cccc(O)c3CC[C@@H]21)c1ccc(-c2ccccc2)cc1` belongs 1170 nM; to `CCN(CC)CCOc1c(Cl)cc(Cl)cc1CNCCCNc1cc(=O)c2ccccc2[nH]1`, 870 nM; to `CO/C(=C\C=C\c1cc2cc(Cl)c(Cl)cc2[nH]1)C(=O)NCCCN1CCN(C2CCCCC2)CC1`, 1010 nM.
As for `Cc1cc(NN=Cc2ccc(Cl)cc2)c2ccc(F)cc2n1`, the IC50 was found to be 760 nM.
With `O=C(NC1CCN(CC2(c3ccc(Cl)cc3)CCCCC2)CC1)c1ccn[nH]1`, the IC50 amounted to 80 nM.
To `c1ccn2c(Sc3ncnc4sccc34)ncc2c1` belongs 660 nM.
In turn, `Cc1ccc(NC(=O)c2ccc(-c3cc4cc(Cl)c(Cl)cc4[nH]3)cc2)cc1OCCN1CCCC1` gave an IC50 of 990 nM.
The compound `CC(C)(C)Nc1nc(Nc2cccc([N+](=O)[O-])c2)nc(-n2ccnc2)n1` had an IC50 of 810 nM.
For the compound `COc1ccc(CCON2C(N)=NC(N)=NC2(C)C)cc1OC`, the IC50 was determined as 10 nM.
Compound `Cc1[nH]c(C)c(-c2ccc(-c3ccccc3Cl)nc2)c(=O)c1Br` had an IC50 of 170 nM.
Turning to `O=C(Nc1ccc(Cl)cc1)c1cc(Cl)cc2[nH]c(C(F)(F)F)nc12`, the IC50 is 130 nM.
As to `COC(=O)c1ccc(NC(=O)Nc2ccc(Cn3ncc(N4CCCNCC4)c(Cl)c3=O)cc2)cc1`, the IC50 stood at 600 nM.
`COc1ccc(C2CCN(CCCCNC(=O)c3ccc(NC(=O)c4ccc(Cl)cc4)cc3)C2)c(OC)c1` (stereo not drawn) gave an IC50 of 1200 nM.
Compound `Cc1ccc(CON2C(N)=NC(N)=NC23CCCCC3)c2ccccc12` registered an IC50 of 70 nM.
In turn, `CCCc1cc(Cc2cnc(N)nc2N)cc(OCCCCCC(=O)O)c1OC` had an IC50 of 160 nM.
The compound `CCCCCN1CCCCC(NS(=O)(=O)c2ccc(C(=O)Nc3ccc(C(F)(F)F)cc3)cc2)C1` (stereo not drawn) displayed an IC50 of 770 nM.
`COc1ccc2nccc([C@@H](O)CN3CCC(NCc4ccc5c(n4)NCCC5)CC3)c2c1` gave an IC50 of 740 nM.
`CCOc1ccc2c(c1)OC(c1ccccc1)(C(F)(F)F)NC2=O` (stereo not drawn) displayed an IC50 of 170 nM.
As for `Nc1nc(N)c2cc(CNc3ccc(Cl)c(Cl)c3)ccc2n1`, the IC50 worked out at 1020 nM.
The compound `NC(N)=Nc1cccc(NC(=O)Nc2cccc(N=C(N)N)c2)c1` gave an IC50 of 260 nM.
The compound `O=C(NC1CCN(CC2(c3ccc(Cl)cc3)CCC2)CC1)c1cscn1` came in with an IC50 of 530 nM.
As for `Cc1c(F)cc(C(=O)NC2CC2)cc1-c1ccc2c(cnn2S(=O)(=O)c2ccc(F)c(F)c2)c1`, the IC50 is 270 nM.
`O=S(=O)(Nc1cccc(CCN2CCC(N3CCCCC3)CC2)c1)c1ccccc1C(F)(F)F` returned an IC50 of 1150 nM.
Take `COc1ccccc1CNC(=O)c1cc(C2CC2)nc2c1cnn2C(C)C`: the IC50 was determined as 1020 nM.
In the case of `COC(=O)/C=C/c1ccc(CC(C)NCC(O)c2cccc(Br)c2)cc1` (stereo not drawn), the IC50 amounted to 720 nM.
With `O=C(Nc1cccc(CN2CCCN(CC3CC3)CC2)c1)c1ccc(-c2ccccc2)cc1`, the concentration for half-maximal inhibition (IC50) worked out at 930 nM.
The compound `CCCCCCCc1c(C)[nH]c2c(OC)cccc2c1=O` displayed an IC50 of 920 nM.
Regarding `CN(C)S(=O)(=O)c1ccc(C(=O)N(c2nc(-c3ccccc3)cs2)C2CCCCC2)cc1`, the IC50 amounted to 760 nM.
In turn, `CC(C)CCNC(=O)c1cnc2c(O)cccc2c1Nc1cccc(NC(=O)c2ccc(F)cc2)c1` came in with an IC50 of 910 nM.
As to `CCCCCN1CCC(NS(=O)(=O)c2cccc(C(=O)Nc3ccc(Cl)cc3)c2)CC1`, the IC50 came to 920 nM.
Consider `COc1ccccc1-c1csc(C(=O)NC2CCCCN(Cc3ccc(C(C)(C)C)cc3)C2)c1` (stereo not drawn), for which the IC50 was 1530 nM.
Compound `CCc1c(CCNCCCCCCNC(C)Cc2ccc3c(c2CC)OCO3)ccc(OC)c1OC` (stereo not drawn) had an IC50 of 870 nM.
Then `CCOC(=O)c1ccc(-c2cnc(N)c(-c3nc4c(C)cccc4[nH]3)c2)cc1`, with 280 nM; and `CC1(CCCCN2CCC(Oc3ccc(F)cc3F)CC2)C(=O)Nc2ccccc21` (stereo not drawn), with 760 nM.
The compound `O=C(CSc1nc(-c2ccccc2Cl)ns1)Nc1cccc(F)c1` displayed an IC50 of 1110 nM.
`NC(N)=NC(=O)Nc1ccc(Cl)c(C(F)(F)F)c1` displayed an IC50 of 590 nM.
`CCc1nc(N)nc(N)c1-c1cccc(Cl)c1` had an IC50 of 190 nM.
Then `O=C(Nc1ccc(Cl)cc1)Nc1cccc(-c2cccc(-c3nc4ccc(F)cc4[nH]3)c2)c1`, with 220 nM; and `O=C(NCc1ccccc1)O[C@@H]1CNCC[C@H]1c1ccc(C(O)Cc2ccccc2)cc1` (stereo partly drawn), with 580 nM; and `Cc1onc(-c2c(Cl)cccc2Cl)c1C(=O)N1CCc2cc3nccc(N4CCN5CCC[C@H]5C4)c3cc21`, with 770 nM.
`Cc1cc(NC2CCN(Cc3ccccc3)CC2)nc(NCCCCc2ccccc2)n1` had an IC50 of 380 nM.
Consider `Cc1cccc2[nH]c(-c3cccc(-c4ccc(NC(=O)C5CCCO5)cc4)c3)nc12` (stereo not drawn), for which the IC50 came out at 900 nM.
Then `CN1CC[C@H](N(Cc2ccccc2F)c2ccc(C#N)c(Cl)c2)C1`, with 1270 nM; and `Cc1cc(NC(=O)Nc2ccc3sccc3c2)c2ccccc2n1`, with 530 nM.
In turn, `OC1(c2ccccc2)c2cc(Cl)ccc2OC1c1nc2c(Cl)ccc(Cl)c2o1` (stereo not drawn) yielded an IC50 of 300 nM.
To `CCCN(CCC)c1nn2c(=O)c(C(=O)N3CCN(Cc4ccccc4)CC3)cnc2s1` belongs 1000 nM.
In the case of `OCC1CCN(Cc2ccc(-c3cccc(-c4nc5ccc(F)cc5[nH]4)c3)cc2)CC1`, the IC50 was found to be 910 nM.
Compound `COc1ccc(-c2csc3nc(C)nc(Cl)c23)cc1OC` had an IC50 of 360 nM.
Compound `CC(=O)Nc1ccc(C(=O)Nc2cccc(-c3ccc(-c4nc5ccccc5[nH]4)cc3)c2)cn1` yielded an IC50 of 210 nM.
Then `CCN(CC)CCN(Cc1ccc(-c2ccc(C(F)(F)F)cc2)cc1)C(=O)Cn1c(CCc2cccc(C#N)c2)nc(=O)c2ccccc21`, with 770 nM; and `COc1cccc(C(=O)NCc2n[nH]c(=S)n2-c2ccc(Cl)c(Cl)c2)c1`, with 170 nM.
`CN(C)CC1CCCN1Cc1ccccc1-c1cnn(C)c(=O)c1Oc1cccc(C#N)c1` (stereo not drawn) registered an IC50 of 1340 nM.
With `COc1ccc2ccccc2c1CCCCN1CCN(CC(c2ccc(F)cc2)N2CCN(C(C)C)CC2)CC1` (stereo not drawn), the IC50 worked out at 810 nM.
Then `CC(Cc1ccc(OCCCCOc2ccccc2)cc1)NCCc1ccccc1Cl` (stereo not drawn), with 180 nM; and `OC(CNCCCc1ccccc1)c1cc(OCc2ccccc2)cc(OCc2ccccc2)c1` (stereo not drawn), with 850 nM.
To `Cc1ccc(CNC(=O)[C@H](CC(C)C)Nc2cc(C)nc(Nc3ccccc3)n2)cc1` belongs 1770 nM; to `O=C(NC1CCN(Cc2ccccc2)CC1)c1cccc(-c2nc3ccc(Cl)cc3[nH]2)c1`, 860 nM; to `COc1cccc(Nc2c(C(N)=O)cnc3ccc(-c4ccccc4)cc23)c1`, 770 nM.
To `CCN(CCCN1CCCCC1)c1cc(C)nc(Nc2cc(Br)ccc2C)n1` belongs 410 nM.
`COc1cc2nc(N3CCC(CNC(=O)c4ccc(-c5ccc(C(=O)N(C)C)cc5OCCO)cc4)CC3)nc(N)c2cc1OC` returned an IC50 of 640 nM.
In turn, `CN1CCC(O)(c2ccc(Br)cc2)C(C(O)c2ccc(Br)cc2)C1` (stereo not drawn) came in with an IC50 of 730 nM.
For `Cc1noc(NC(=O)c2sc3ccccc3c2O)c1C`, the IC50 was 850 nM.
The compound `COc1cccc2cc(C(=O)N[C@@H](CC(C)C)C(=O)N[C@H](/C=N/N3CCCC3=O)Cc3ccccc3)oc12` yielded an IC50 of 560 nM.
For `Cc1c(F)cc(C(=O)NC2CC2)cc1-c1ccc2c(cnn2S(=O)(=O)c2ccc(Cl)s2)c1`, the IC50 came to 390 nM.
`CN1CCN(c2ccc(-c3nc4c(C(N)=O)c(OCc5cc(Cl)cc(Cl)c5)ccc4[nH]3)cc2)CC1` returned an IC50 of 660 nM.
`Nc1cc(C=Cc2ccc(O)cc2)nc2ccccc12`: the IC50 came out at 990 nM.
Then `COc1ccc(CCNCc2ccc3c(C)cc(N)nc3c2)cc1`, with 570 nM; and `O=C(c1c(-c2[nH]c3ccccc3c2C(=O)C(F)(F)F)[nH]c2ccccc12)C(F)(F)F`, with 750 nM; and `Cc1ccc(C)c(CN2CCC(CNC(=O)c3cc4ccc5cccnc5c4[nH]3)CC2)c1`, with 990 nM.
Consider `CCN(CC)CCN(Cc1ccc(-c2ccc(Cl)s2)cc1)C(=O)Cn1c(CCc2cccc(F)c2F)nc(=O)c2ccccc21`, for which the IC50 came to 1140 nM.
Turning to `Cc1nn(-c2ccccc2)c2nc(-c3ccccc3)cc(C(=O)N3CCOCC3)c12`, the IC50 was 870 nM.
Compound `COc1ccc(CNC(=O)c2cnc3cc(-c4c(C)noc4C)ccc3c2Nc2ccccc2C(C)(C)C)cc1` had an IC50 of 1300 nM.
As for `CC(=O)Nc1ccc(CN2CCC(N(C)c3cc(NC(=O)c4ccc(F)cc4)ccn3)CC2)cc1`, the IC50 turned out to be 1120 nM.
In turn, `COc1cc2nc(N3CCC(CNC(=O)c4ccc(-c5ccc(C(=O)N(C)C)cc5)cc4)CC3)nc(N)c2cc1OC` showed an IC50 of 750 nM.
